Results reported in PMC9405973, “Altered Conformational Landscape upon Sensing Guanine Nucleotides in a Disease Mutant of Elongation Factor-like 1 (EFL1) GTPase” (Biomolecules, 2022).
Several values for one entry are separate records, joined by “and”; a condition that tells them apart may be missing. Equal entries are not always repeated. Where two headings read alike, the source gives them in different places.

Legend:
Efl1 R1086Q•Sdo1 = molecular target: T1, Efl1 R1086Q•Sdo1 (Saccharomyces cerevisiae, UniProt P53893, R1086Q); assay: ITC: binding of guanine nucleotides to pre-formed complex Efl1 R1086Q•Sdo1; conditions: for ΔCpb: from ΔHb at 25–35 °C; for -TΔs / Δg / Δh / κ (heterotropic cooperativity): Effect of Mg^2+
T1 construct: made in house; host or cells: Efl1: Saccharomyces cerevisiae; Sdo1: Escherichia coli C41
T1 sequence (P53893 whole entry R1086Q): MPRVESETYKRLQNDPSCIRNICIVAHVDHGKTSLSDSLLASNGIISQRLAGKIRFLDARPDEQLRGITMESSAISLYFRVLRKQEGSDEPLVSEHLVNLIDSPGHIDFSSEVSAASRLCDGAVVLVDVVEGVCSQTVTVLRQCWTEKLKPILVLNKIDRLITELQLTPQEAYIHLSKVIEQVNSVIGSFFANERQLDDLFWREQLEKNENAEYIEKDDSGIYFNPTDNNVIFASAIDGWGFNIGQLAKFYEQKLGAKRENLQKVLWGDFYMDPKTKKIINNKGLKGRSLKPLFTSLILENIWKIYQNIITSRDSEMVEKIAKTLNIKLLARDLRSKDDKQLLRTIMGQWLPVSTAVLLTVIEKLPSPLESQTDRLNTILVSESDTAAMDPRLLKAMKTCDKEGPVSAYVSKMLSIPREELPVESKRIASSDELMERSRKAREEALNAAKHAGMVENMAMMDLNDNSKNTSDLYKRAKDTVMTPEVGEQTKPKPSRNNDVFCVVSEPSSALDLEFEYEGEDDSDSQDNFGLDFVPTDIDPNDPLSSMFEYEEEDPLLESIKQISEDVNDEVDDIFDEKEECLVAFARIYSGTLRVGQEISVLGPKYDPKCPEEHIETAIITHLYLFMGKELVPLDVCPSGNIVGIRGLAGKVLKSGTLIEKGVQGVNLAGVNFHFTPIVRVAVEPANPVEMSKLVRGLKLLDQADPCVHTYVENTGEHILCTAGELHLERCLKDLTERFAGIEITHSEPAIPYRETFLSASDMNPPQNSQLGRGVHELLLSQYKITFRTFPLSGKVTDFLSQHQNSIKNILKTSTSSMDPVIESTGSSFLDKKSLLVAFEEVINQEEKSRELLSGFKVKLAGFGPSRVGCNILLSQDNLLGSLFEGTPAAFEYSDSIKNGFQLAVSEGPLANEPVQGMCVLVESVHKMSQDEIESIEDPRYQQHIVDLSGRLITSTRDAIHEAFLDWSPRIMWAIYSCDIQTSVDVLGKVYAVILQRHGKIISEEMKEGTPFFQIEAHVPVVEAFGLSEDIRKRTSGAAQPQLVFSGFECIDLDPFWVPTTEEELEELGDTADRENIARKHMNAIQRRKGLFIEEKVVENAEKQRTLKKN
T1 sequence (Q07953 whole entry, further chain): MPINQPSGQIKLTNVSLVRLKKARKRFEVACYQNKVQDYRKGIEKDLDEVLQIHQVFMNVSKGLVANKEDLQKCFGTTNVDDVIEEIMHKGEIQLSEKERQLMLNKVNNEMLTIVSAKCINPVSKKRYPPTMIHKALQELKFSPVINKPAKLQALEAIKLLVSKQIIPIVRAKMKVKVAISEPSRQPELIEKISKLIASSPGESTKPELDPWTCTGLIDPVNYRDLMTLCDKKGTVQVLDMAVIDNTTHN
Experimental: All calorimetric measurements were carried out using MicroCal^TM iTC200 System (GE Healthcare, Northampton, MA, USA) in a temperature range of 25–35 °C. Experiments were performed in a buffer consisting of 50 mM Tris-HCl (pH 8.0), 150 mM NaCl, 100 µM DTT, and 5% glycerol. In the titrations with Mg^2+-bound nucleotides, both the ligand and protein solutions contained 5 mM MgCl2. In the case of titrations with Mg^2+-free nucleotide, both the ligand and protein solutions were supplemented with 2 mM EDTA to sequester any residual trace of metal ions in solution. Protein samples and ligands were prepared in the exact same buffer prior to each titration. Protein concentration in the cell comprised 30–50 µM GTPase, while the ligand concentration in the syringe was 2–3 mM for GTP, MgGTP, GDP, and MgGDP. To ensure measuring the interaction of the complex Efl1 R1086Q•Sdo1 with the nucleotide, an eight-fold concentration excess of Sdo1 was used compared with that of the enzyme. […] The titration schedule consisted of 15–20 consecutive injections of the ligand with 5 min intervals between injections and a stirring rate of 700 rpm. The dilution heat of the ligand was obtained by adding the ligand to a buffer solution under identical conditions and with the same injection schedule used for the protein sample. All samples were degassed for 10 min prior to the experiment.
The binding isotherms obtained for the isolated GTPase in the presence of Mg(II) were analysed using a ternary model in which the protein can bind to the free nucleotide (G(D)TP) or that bound to one magnesium ion (MgG(D)TP); additionally, GTP may also exist in the form of Mg2GTP, which is not recognised by the protein. The derivation of this coupled-equilibria model can be reviewed in [6, 31]. The binding constant (Kb), the enthalpy change (∆Hb), and the stoichiometry (n) were obtained with the non-linear routines implemented in Origin 5.0 (OriginLab, Co., Northampton, MA, USA) using a one-binding-site model as described in [32, 33]. The heterotropic cooperativity for the binding of guanine nucleotides and Sdo1 to Efl1 R1086Q were calculated as previously described in [6, 32]. The cooperative effects of Mg(II) on the binding of guanine nucleotides to Efl1 R1086Q alone and bound to Sdo1 were calculated as follows:κ = KE-MG/KE-G κ = KES-MG/KES-G Δh = ΔHE-MG − ΔHE-G Δh = ΔHES-MG − ΔHES-G where subscripts E-MG and E-G stand for the association of the metal-bound and metal-free guanine nucleotide with mutant Efl1, respectively. Corresponding expressions applied to the heterotropic cooperativity of the binding of nucleotides to the preformed complex, Efl1•Sdo1 (ES).
The impact of Sdo1 on the binding of Efl1 R1086Q to guanine nucleotides in the presence of magnesium ions is contained in KES-MG and ΔHES-MG relative to the KE-S and ΔHE-S values; analogous ratios report the effects in the absence of Mg(II):κ = KES-MG/KE-S κ = KES-G/KE-G Δh = ΔHES-MG − ΔHE-S Δh = ΔHES-G − ΔHE-G
The corresponding cooperative entropy change was calculated as:TΔs = Δh − Δg = Δh + RTlnκ
The detailed methodology and equations to compute the changes in the accessible surface area (∆ASA) of the GTPase upon binding to nucleotides and the ∆S energetic-based parameters are reported in [6]. Briefly, the water-accessible areas (ASAs) were computed using programme NACCESS, while the changes in accessible surface area (ΔASA) upon the formation of each GTPase–nucleotide complex were estimated considering the difference between the complex and the sum of the free interacting partners. The calculated polar (ΔASAp) and apolar (ΔASAap) area changes were subsequently used to estimate the free molecular partners. […]

wild-type Efl1 = conditions: cited from earlier work; for -TΔSb / Kd / ΔGb / ΔHb / ΔCpb: guanine nucleotide
[1] = Effect of Mg^2+, wild-type Efl1 − Sdo1, 30 °C
[2] = Effect of Sdo1, wild-type Efl1 − Mg^2+, 30 °C

With `Nc1nc2c(ncn2[C@@H]2O[C@H](COP(=O)(O)OP(=O)(O)O)[C@@H](O)[C@H]2O)c(=O)[nH]1` [GDP] the “fold greater affinity in the presence of magnesium ions” value (Efl1 R1086Q•Sdo1; +Mg^2+ vs −Mg^2+) was 2–5 times, the “-TΔSb” value (Efl1 R1086Q•Sdo1; +Mg^2+, 25 °C) was -4.7 kcal/mol and the ΔGb (Efl1 R1086Q•Sdo1; +Mg^2+, 25 °C) was -6.9 kcal/mol. The ΔHb (Efl1 R1086Q•Sdo1; +Mg^2+, 25 °C) was -2.1 ± 0.08 kcal/mol, the “-TΔSb” value (Efl1 R1086Q•Sdo1; +Mg^2+, 30 °C) was -3.3 kcal/mol and the “Nconfres (number of residues changing conformation, absolute value)” value (Efl1 R1086Q•Sdo1; +Mg^2+, 30 °C) was 25. The “Nconfrotb (number of routable bonds changing conformation, absolute value)” value (Efl1 R1086Q•Sdo1; +Mg^2+, 30 °C) was 34, the ΔCpconf (Efl1 R1086Q•Sdo1; +Mg^2+, 30 °C) was −267 cal mol^−1 K^−1 and the ΔCprb (Efl1 R1086Q•Sdo1; +Mg^2+, 30 °C) was −48 cal mol^−1 K^−1. For the same compound, the ΔGb (Efl1 R1086Q•Sdo1; +Mg^2+, 30 °C) was -7.1 kcal/mol, the ΔHb (Efl1 R1086Q•Sdo1; +Mg^2+, 30 °C) was -3.8 ± 0.05 kcal/mol and the ΔSb (Efl1 R1086Q•Sdo1; +Mg^2+, 30 °C) was 11 cal mol^−1 K^−1. The ΔSconf (Efl1 R1086Q•Sdo1; +Mg^2+, 30 °C) was −57 cal mol^−1 K^−1, the ΔSsolv (Efl1 R1086Q•Sdo1; +Mg^2+, 30 °C) was 75 cal mol^−1 K^−1 and the “−ΔASAconf” value (Efl1 R1086Q•Sdo1; +Mg^2+, 30 °C) was 1198 Å^2. For the same compound, the “-TΔSb” value (Efl1 R1086Q•Sdo1; +Mg^2+, 35 °C) was -2.0 kcal/mol, the ΔGb (Efl1 R1086Q•Sdo1; +Mg^2+, 35 °C) was -7.3 kcal/mol and the ΔHb (Efl1 R1086Q•Sdo1; +Mg^2+, 35 °C) was -5.3 ± 0.11 kcal/mol. The ΔCpb (Efl1 R1086Q•Sdo1; +Mg^2+) was −315 cal mol^−1 K^−1 and −315 ± 9 cal mol^−1 K^−1, the “-TΔs” value (Efl1 R1086Q•Sdo1; Efl1 R1086Q + Sdo1, 25 °C) was -0.7 kcal/mol and the Δg (Efl1 R1086Q•Sdo1; Efl1 R1086Q + Sdo1, 25 °C) was -0.4 kcal/mol. For the same compound, the Δh (Efl1 R1086Q•Sdo1; Efl1 R1086Q + Sdo1, 25 °C) was 0.3 kcal/mol, the “κ (heterotropic cooperativity)” value (Efl1 R1086Q•Sdo1; Efl1 R1086Q + Sdo1, 25 °C) was 1.9 and the “-TΔs” value (Efl1 R1086Q•Sdo1; Efl1 R1086Q + Sdo1, 30 °C) was -2.4 kcal/mol. The Δg (Efl1 R1086Q•Sdo1; Efl1 R1086Q + Sdo1, 30 °C) was -0.8 kcal/mol, the Δh (Efl1 R1086Q•Sdo1; Efl1 R1086Q + Sdo1, 30 °C) was 1.6 kcal/mol and the “κ (heterotropic cooperativity)” value (Efl1 R1086Q•Sdo1; Efl1 R1086Q + Sdo1, 30 °C) was 3.7. For the same compound, the “-TΔs” value (Efl1 R1086Q•Sdo1; Efl1 R1086Q + Sdo1, 35 °C) was -3.7 kcal/mol, the Δg (Efl1 R1086Q•Sdo1; Efl1 R1086Q + Sdo1, 35 °C) was -1.0 kcal/mol and the Δh (Efl1 R1086Q•Sdo1; Efl1 R1086Q + Sdo1, 35 °C) was 2.7 kcal/mol. The “κ (heterotropic cooperativity)” value (Efl1 R1086Q•Sdo1; Efl1 R1086Q + Sdo1, 35 °C) was 5.4, the Kd (Efl1 R1086Q•Sdo1; +Mg^2+, 25 °C) was 9 ± 2 µM and the Kd (Efl1 R1086Q•Sdo1; +Mg^2+, 30 °C) was 8 ± 1 µM. For the same compound, the Kd (Efl1 R1086Q•Sdo1; +Mg^2+, 35 °C) was 6 ± 1 µM, the Kd (Efl1 R1086Q•Sdo1; −Mg^2+, 25 °C) was 17 ± 0.5 µM and the Kd (Efl1 R1086Q•Sdo1; −Mg^2+, 30 °C) was 30 ± 4 µM. For the same compound, the Kd (Efl1 R1086Q•Sdo1; −Mg^2+, 35 °C) was 34 ± 5 µM, the “-TΔSb” value (Efl1 R1086Q•Sdo1; −Mg^2+, 25 °C) was -4.0 kcal/mol and the ΔGb (Efl1 R1086Q•Sdo1; −Mg^2+, 25 °C) was -6.5 kcal/mol. For the same compound, the ΔHb (Efl1 R1086Q•Sdo1; −Mg^2+, 25 °C) was -2.5 ± 0.4 kcal/mol, the “-TΔSb” value (Efl1 R1086Q•Sdo1; −Mg^2+, 30 °C) was -1.0 kcal/mol and the “Nconfres (number of residues changing conformation, absolute value)” value (Efl1 R1086Q•Sdo1; −Mg^2+, 30 °C) was 50. For the same compound, the “Nconfrotb (number of routable bonds changing conformation, absolute value)” value (Efl1 R1086Q•Sdo1; −Mg^2+, 30 °C) was 72, the ΔCpconf (Efl1 R1086Q•Sdo1; −Mg^2+, 30 °C) was −520 cal mol^−1 K^−1 and the ΔGb (Efl1 R1086Q•Sdo1; −Mg^2+, 30 °C) was -6.3 kcal/mol. It also gave a ΔHb (Efl1 R1086Q•Sdo1; −Mg^2+, 30 °C) of -5.4 ± 0.6 kcal/mol, a ΔSb (Efl1 R1086Q•Sdo1; −Mg^2+, 30 °C) of 3 cal mol^−1 K^−1 and a ΔSconf (Efl1 R1086Q•Sdo1; −Mg^2+, 30 °C) of −121 cal mol^−1 K^−1. For the same compound, the ΔSsolv (Efl1 R1086Q•Sdo1; −Mg^2+, 30 °C) was 132 cal mol^−1 K^−1, the “−ΔASAconf” value (Efl1 R1086Q•Sdo1; −Mg^2+, 30 °C) was 2334 Å^2 and the “-TΔSb” value (Efl1 R1086Q•Sdo1; −Mg^2+, 35 °C) was 1.7 kcal/mol. For the same compound, the ΔGb (Efl1 R1086Q•Sdo1; −Mg^2+, 35 °C) was -6.30 kcal/mol, the ΔHb (Efl1 R1086Q•Sdo1; −Mg^2+, 35 °C) was -8.0 ± 0.8 kcal/mol and the ΔCpb (Efl1 R1086Q•Sdo1; −Mg^2+) was −550 cal mol^−1 K^−1 and −550 ± 18 cal mol^−1 K^−1. The “-TΔs” value (wild-type Efl1; [1]) was -0.5 kcal/mol, the Δg (wild-type Efl1; [1]) was 0.6 kcal/mol and the Δh (wild-type Efl1; [1]) was 1.1 kcal/mol. For the same compound, the “κ (heterotropic cooperativity)” value (wild-type Efl1; [1]) was 0.4, the “-TΔs” value (wild-type Efl1; [2]) was 1.5 kcal/mol and the Δg (wild-type Efl1; [2]) was 0.8 kcal/mol. The Δh (wild-type Efl1; [2]) was -0.7 kcal/mol, the “κ (heterotropic cooperativity)” value (wild-type Efl1; [2]) was 0.3 and the “-TΔSb” value (wild-type Efl1; +Mg^2+, 30 °C) was -0.5 kcal/mol. For the same compound, the Kd (wild-type Efl1; +Mg^2+, 30 °C) was 37 µM, the ΔGb (wild-type Efl1; +Mg^2+, 30 °C) was -6.1 kcal/mol and the ΔHb (wild-type Efl1; +Mg^2+, 30 °C) was -5.6 ± 0.2 kcal/mol. For the same compound, the ΔCpb (wild-type Efl1; +Mg^2+) was −310 ± 5 cal mol^−1 K^−1 and −310 cal mol^−1 K^−1, the “-TΔSb” value (wild-type Efl1; −Mg^2+, 30 °C) was 0.0 kcal/mol and the Kd (wild-type Efl1; −Mg^2+, 30 °C) was 16 µM. The ΔGb (wild-type Efl1; −Mg^2+, 30 °C) was -6.7 kcal/mol, the ΔHb (wild-type Efl1; −Mg^2+, 30 °C) was -6.7 ± 0.3 kcal/mol and the ΔCpb (wild-type Efl1; −Mg^2+) was −318 ± 35 cal mol^−1 K^−1 and −318 cal mol^−1 K^−1.
